Data from PMC9137512 (Antibiotics, 2022).

Legend:
clinical = settings: for level at 192 h: iv
Experimental: The samples were subsequently analyzed according to the described method. […] The patients’ estimated glomerular filtration (eGFR) was calculated by the chronic kidney disease epidemiology collaboration equation (CKD–EPI). The AUC was calculated using the trapezoidal rule.
(§1) Subsequently, samples were mixed for 10 s, stored in an ultrasonic bath for 10 min at 40 °C, then centrifuged at 8000× g for 5 min. Next, 100 µL of the resulting supernatant was further diluted with 500 µL water with 0.1% formic acid. […] Details are described in the Supplementary Materials (Figures S1–S3).
An aliquot of 20 µL was injected onto the HPLC–UV system equipped with a diode array detector (Nexera-I 3D plus, Shimadzu, Duisburg, Germany). Chromatographic analysis was performed using a reversed phase column Shim-pack XR-ODS III with 2.2 µm particle size (150 mm × 2 mm, Shimadzu, Duisburg, Germany) in combination with a column guard (Shim-pack GISS-H (G) C18, 3 µm; 10 mm × 2.1 mm, Shimadzu, Duisburg, Germany). Separation was performed using a gradient of 0.1% formic acid in acetonitrile and 0.1% formic acid in water with a flow rate of 0.35 mL/min. The autosampler and column were set at temperatures of 10 °C and 45 °C, respectively.

[1] = Stability of aqueous stock solution; type: physicochemical; settings: HPLC-UV
[2] = cited from earlier work
From the text: Efficacy is associated with the area under the concentration-time curve (AUC) divided by the minimal inhibitory concentration (MIC). […] Standard in vitro me ...

[3] = Stability of dalbavancin in human serum; settings: serum samples, HPLC-UV
[4] = Free concentration and protein binding in spiked human serum samples (Table S5)
Experimental: as §1
Table S5. […] In order to evaluate the
(a) Spiked human serum samples of 14 patients (8 critically ill and 6 non-critically ill) after calibration with sheep serum.
(b) Spiked human serum samples of 9 critically ill patients and 6 healthy volunteers after calibration with human serum.

[5] = S5a, serum of patient 2 (critically ill) spiked 200 mg/L, measured c 207 mg/L, calibration with sheep serum
[6] = S5a, serum of patient 3 (critically ill) spiked 50 mg/L, measured c 51.2 mg/L, calibration with sheep serum
[7] = S5b, serum of 26 (healthy volunteer) spiked 200 mg/L, measured c 219 mg/L, calibration with human serum
[8] = S5b, serum of 27 (healthy volunteer) spiked 50 mg/L, measured c 52.5 mg/L, calibration with human serum
[9] = S5b, serum of 27 (healthy volunteer) spiked 200 mg/L, measured c 220 mg/L, calibration with human serum
[10] = S5b, serum of 28 (healthy volunteer) spiked 50 mg/L, measured c 49.1 mg/L, calibration with human serum
[11] = S5b, serum of 28 (healthy volunteer) spiked 200 mg/L, measured c 199 mg/L, calibration with human serum
[12] = S5b, serum of 29 (healthy volunteer) spiked 50 mg/L, measured c 52.0 mg/L, calibration with human serum
[13] = S5b, serum of 29 (healthy volunteer) spiked 200 mg/L, measured c 207 mg/L, calibration with human serum

## CN[C@H]1C(=O)N[C@@H]2Cc3ccc(cc3)Oc3cc4cc(c3O[C@@H]3O[C@H](C(=O)O)[C@@H](O)[C@H](O)[C@H]3NC(=O)CCCCCCCCC(C)C)Oc3ccc(cc3Cl)[C@@H](O)[C@@H]3NC(=O)[C@H](NC(=O)[C@@H]4NC(=O)[C@@H](NC2=O)c2cc(cc(O)c2Cl)Oc2cc1ccc2O)c1ccc(O)c(c1)-c1c(O[C@H]2O[C@H](CO)[C@@H](O)[C@H](O)[C@@H]2O)cc(O)cc1[C@@H](C(=O)NCCCN(C)C)NC3=O [dalbavancin, Dalbavancin]
clinical; human, in vivo, 1500 mg, cmax(d1)
  Cmax: 278 µg/mL
clinical; human, in vivo, 1500 mg, cmin(d8)
  level at 192 h: 44.9 µg/mL
clinical; human, in vivo, trough concentrations on day 8 before redosing
  level at 192 h: 23 to 44.9 µg/mL
clinical; range of three cardiologic patients, total serum
  peak concentrations after the initial dosing: 201 to 278 mg/L
[1]; frozen at −80 °C
  stability time (>90% of baseline concentration): at least 12 months
[1]; refrigerated (2–8 °C)
  stability time (>90% of baseline concentration): at least 3 months
[2]; approximately
  elimination half-life: > 14 days
[2]
  clearance: 0.05 L/h
[3]; frozen at −20 °C
  stability time (>90% of baseline concentration): at least 1 month
[3]; frozen at −80 °C
  stability time (>90% of baseline concentration): at least 12 months
[3]; refrigerated (2–8 °C)
  stability time (>90% of baseline concentration): at least 96 h
[3]; room temperature
  stability time (>90% of baseline concentration): ≥ 48 h
[4]; S5a, serum of patient 1 (critically ill) spiked 50 mg/L, measured c 53.5 mg/L, Nanosep SPE, HPLC-UV, calibration with sheep serum
  fc: 1.4 mg/L
[4]; S5a, serum of patient 1 (critically ill) spiked 200 mg/L, measured c 201 mg/L, calibration with sheep serum
  fc: 7.6 mg/L
[4]; S5a, serum of patient 2 (critically ill) spiked 50 mg/L, measured c 53.6 mg/L, calibration with sheep serum
  fc: 1.7 mg/L
[4]; [5]
  PB: 96%
  fc: 9.0 mg/L
[4]; [6]
  PB: 96%
  fc: 1.9 mg/L
[4]; S5a, serum of patient 3 (critically ill) spiked 200 mg/L, measured c 209 mg/L, calibration with sheep serum
  fc: 9.1 mg/L
[4]; S5a, serum of patient 4 (critically ill) spiked 50 mg/L, measured c 54.2 mg/L, calibration with sheep serum
  fc: 1.6 mg/L
[4]; S5a, serum of patient 4 (critically ill) spiked 200 mg/L, measured c 212 mg/L, calibration with sheep serum
  fc: 7.7 mg/L
[4]; S5a, serum of patient 5 (critically ill) spiked 50 mg/L, measured c 53.0 mg/L, calibration with sheep serum
  fc: 2.1 mg/L
[4]; S5a, serum of patient 5 (critically ill) spiked 200 mg/L, measured c 203 mg/L, calibration with sheep serum
  fc: 9.5 mg/L
[4]; S5a, serum of patient 6 (critically ill) spiked 50 mg/L, measured c 50.4 mg/L, calibration with sheep serum
  fc: 1.5 mg/L
[4]; S5a, serum of patient 6 (critically ill) spiked 200 mg/L, measured c 204 mg/L, calibration with sheep serum
  fc: 9.2 mg/L
[4]; S5a, serum of patient 7 (critically ill) spiked 50 mg/L, measured c 49.1 mg/L, calibration with sheep serum
  fc: 2.4 mg/L
[4]; S5a, serum of patient 7 (critically ill) spiked 200 mg/L, measured c 195 mg/L, calibration with sheep serum
  fc: 10.2 mg/L
[4]; S5a, serum of patient 8 (critically ill) spiked 50 mg/L, measured c 54.3 mg/L, calibration with sheep serum
  fc: 1.8 mg/L
[4]; S5a, serum of patient 8 (critically ill) spiked 200 mg/L, measured c 201 mg/L, calibration with sheep serum
  fc: 8.7 mg/L
[4]; S5a, serum of patient 9 (non-critically ill) spiked 50 mg/L, measured c 40.0 mg/L, calibration with sheep serum
  fc: < 1.0 mg/L
[4]; S5a, serum of patient 9 (non-critically ill) spiked 200 mg/L, measured c 177 mg/L, calibration with sheep serum
  fc: 3.7 mg/L
[4]; S5a, serum of patient 10 (non-critically ill) spiked 50 mg/L, measured c 47.8 mg/L, calibration with sheep serum
  fc: < 1.0 mg/L
[4]; S5a, serum of patient 10 (non-critically ill) spiked 200 mg/L, measured c 180 mg/L, calibration with sheep serum
  fc: 4.0 mg/L
[4]; S5a, serum of patient 11 (non-critically ill) spiked 50 mg/L, measured c 38.6 mg/L, calibration with sheep serum
  fc: < 1.0 mg/L
[4]; S5a, serum of patient 11 (non-critically ill) spiked 200 mg/L, measured c 177 mg/L, calibration with sheep serum
  fc: 3.5 mg/L
[4]; S5a, serum of patient 12 (non-critically ill) spiked 50 mg/L, measured c 42.6 mg/L, calibration with sheep serum
  fc: < 1.0 mg/L
[4]; S5a, serum of patient 12 (non-critically ill) spiked 200 mg/L, measured c 195 mg/L, calibration with sheep serum
  fc: 3.9 mg/L
[4]; S5a, serum of patient 13 (non-critically ill) spiked 50 mg/L, measured c 53.0 mg/L, calibration with sheep serum
  fc: 1.1 mg/L
[4]; S5a, serum of patient 13 (non-critically ill) spiked 200 mg/L, measured c 214 mg/L, calibration with sheep serum
  fc: 6.3 mg/L
[4]; S5a, serum of patient 14 (non-critically ill) spiked 50 mg/L, measured c 50.0 mg/L, calibration with sheep serum
  fc: 1.1 mg/L
[4]; S5a, serum of patient 14 (non-critically ill) spiked 200 mg/L, measured c 208 mg/L, calibration with sheep serum
  fc: 4.6 mg/L
[4]; S5b, serum of 24 (healthy volunteer) spiked 50 mg/L, measured c 46.1 mg/L, calibration with human serum
  fc: 1.6 mg/L
[4]; S5b, serum of 24 (healthy volunteer) spiked 200 mg/L, measured c 184 mg/L, calibration with human serum
  fc: 4.6 mg/L
[4]; S5b, serum of 25 (healthy volunteer) spiked 50 mg/L, measured c 45.8 mg/L, calibration with human serum
  fc: 1.6 mg/L
[4]; S5b, serum of 25 (healthy volunteer) spiked 200 mg/L, measured c 197 mg/L, calibration with human serum
  fc: 5.8 mg/L
[4]; S5b, serum of 26 (healthy volunteer) spiked 50 mg/L, measured c 52.6 mg/L, calibration with human serum
  fc: 1.6 mg/L
[4]; [7]
  PB: 97%
  fc: 5.2 mg/L
[4]; [8]
  PB: 97%
  fc: 1.7 mg/L
[4]; [9]
  PB: 97%
  fc: 5.1 mg/L
[4]; [10]
  PB: 97%
  fc: 1.6 mg/L
[4]; [11]
  PB: 98%
  fc: 4.8 mg/L
[4]; [12]
  PB: 97%
  fc: 1.4 mg/L
[4]; [13]
  PB: 98%
  fc: 4.6 mg/L
[4]; S5b, serum of patient 15 (critically ill) spiked 50 mg/L, measured c 56.7 mg/L, Nanosep SPE, HPLC-UV, calibration with human serum
  fc: 1.9 mg/L
